From the CheMixHub viscosity set
± gives the uncertainty stated by the source.

Experiment: xn = mol fraction of the nth substance listed

COCCOCCOCCOCCOC + COC(C)=O
viscosity [mPa·s], 101 kPa
Settings	298.15 K	308.15 K	318.15 K
x1 = 0.0089	0.382 ± 0.01	0.344 ± 0.0093	0.325 ± 0.0088
x1 = 0.0206	0.404 ± 0.011	0.364 ± 0.0098	0.339 ± 0.0091
x1 = 0.0384	0.439 ± 0.012	0.392 ± 0.01	0.365 ± 0.0098
x1 = 0.0758	0.519 ± 0.014	0.459 ± 0.012	0.42 ± 0.011
x1 = 0.1174	0.61 ± 0.016	0.539 ± 0.014	0.484 ± 0.013
x1 = 0.1646	0.729 ± 0.019	0.63 ± 0.017	0.56 ± 0.015
x1 = 0.231	–	0.773 ± 0.021	0.677 ± 0.018
x1 = 0.2993	1.096 ± 0.029	0.924 ± 0.025	0.749 ± 0.02
x1 = 0.3846	1.349 ± 0.036	1.11 ± 0.029	0.947 ± 0.025
x1 = 0.453	1.581 ± 0.042	1.294 ± 0.034	1.09 ± 0.029
x1 = 0.5398	1.854 ± 0.049	1.503 ± 0.04	1.254 ± 0.033
x1 = 0.6662	2.272 ± 0.06	1.832 ± 0.048	1.504 ± 0.04
x1 = 0.719	2.475 ± 0.065	1.961 ± 0.052	1.624 ± 0.043
x1 = 0.7865	2.669 ± 0.07	2.143 ± 0.057	1.751 ± 0.046
x1 = 0.8413	2.902 ± 0.076	2.278 ± 0.06	1.858 ± 0.049
x1 = 0.8673	2.957 ± 0.078	2.358 ± 0.062	1.919 ± 0.051
x1 = 0.8983	3.08 ± 0.081	2.43 ± 0.064	1.956 ± 0.052
x1 = 0.9205	3.127 ± 0.082	2.478 ± 0.066	1.991 ± 0.053
x1 = 0.9565	3.266 ± 0.086	2.547 ± 0.067	2.058 ± 0.055

COCCOCCOCCOCCOC + CCC(C)O
viscosity [mPa·s]
Settings	298.15 K	308.15 K	318.15 K	323.15 K
101 kPa, x1 = 0.0018	3.082 ± 0.048	2.157 ± 0.034	1.554 ± 0.025	–
101 kPa, x1 = 0.0046	3.032 ± 0.047	2.132 ± 0.034	1.544 ± 0.025	–
101 kPa, x1 = 0.0146	2.91 ± 0.045	2.069 ± 0.032	1.515 ± 0.024	–
101 kPa, x1 = 0.0257	2.787 ± 0.043	2.024 ± 0.032	1.493 ± 0.024	–
101 kPa, x1 = 0.0738	2.439 ± 0.038	1.834 ± 0.029	1.408 ± 0.023	–
101 kPa, x1 = 0.0988	–	1.777 ± 0.028	1.368 ± 0.022	–
101.3 kPa, x2 = 0.5011	–	–	–	1.495 ± 0.018
101.3 kPa, x2 = 0.6997	–	–	1.445 ± 0.017	–

CCCCCCCCCCCCCCCCCCCCCC + CCCCCCC
viscosity [mPa·s], 101.3 kPa
Settings	x1 = 0.2	x1 = 0.4	x1 = 0.479	x1 = 0.596	x1 = 0.798
303.2 K	0.9761 ± 0.011	–	–	–	–
313.2 K	0.8502 ± 0.0096	1.621 ± 0.018	2.137 ± 0.024	–	–
323.1 K	0.7493 ± 0.0085	1.39 ± 0.016	1.826 ± 0.021	2.449 ± 0.028	3.197 ± 0.036

OCCCCCO + CN(C)C=O
308.15 K, 101 kPa
Settings	viscosity [mPa·s]
x1 = 0.025	0.759 ± 0.039
x1 = 0.0483	0.826 ± 0.042
x1 = 0.1005	1.025 ± 0.051
x1 = 0.1877	1.446 ± 0.069
x1 = 0.2971	2.284 ± 0.11
x1 = 0.388	3.676 ± 0.17
x1 = 0.4882	5.774 ± 0.25
x1 = 0.586	9.073 ± 0.37
x1 = 0.6875	14.59 ± 0.57
x1 = 0.7802	22.71 ± 0.9
x1 = 0.9446	49.91 ± 2.1
x1 = 0.9714	56.42 ± 1.9
